According to publication PMC6680806, “Preparation of Retinoyl-Flavonolignan Hybrids and Their Antioxidant Properties” (Antioxidants, 2019):
Several values for one entry are separate records, joined by “and”; a condition that tells them apart may be missing. Equal values may be shown once.

Assays:
[1] = Cupric reducing antioxidant capacity (CUPRAC); assay type: biochemical; details: mean ± standard error; values marked f: measurement disturbed by the formation of a precipitate
Method: (§1) Ferric reducing antioxidant power (FRAP) and cupric reducing antioxidant capacity (CUPRAC) were measured using kits from Bioquochem (Llanera-Asturias, Spain) according to the manufacturer´s instructions and expressed as trolox equivalents (TE). To determine oxygen radical absorption capacity (ORAC), 73 µL of fluorescein (1.8 mg/L) solution in phosphate buffered saline (PBS, pH 7.4) was mixed with 2 µL of the samples (0–20 µM) in the wells of a 96-well plate. After 15 min incubation (37 °C), 25 µL of freshly prepared 2,2′-azo-bis(2-amidinopropane) dihydrochloride (AAPH, 60 mg/mL) was added to each well except for the negative control, where AAPH was replaced for PBS. The fluorescence (ex./em., 485/535 nm) was recorded immediately and for the next 2 h with the measurement step for 5 min using a microplate reader (SpectraMax i3 Multi-Mode Detection Platform, Molecular Devices, Wokingham, UK).
(§2) The oxidations in living organism caused by free radicals are usually undesirable processes damaging such important biomolecules as DNA, proteins and lipids. The application of antioxidants is one of the most straightforward means to protect these biomolecules from oxidative stress. Many assays are available for determination of antioxidant potential in vitro. These assays are based on the reduction of stable radicals (DPPH), on the competitive bleaching of a probe (ORAC) or on the reduction of iron ions (CUPRAC, FRAP). CUPRAC test is very similar to FRAP assay but is based on the reduction of Cu^2+ in a neutral pH, while FRAP test is based on Fe^3+ in acidic pH. As each assay suffers from some limitations, a set of antioxidant tests was used here to combine more parameters.

HepG2 cell line = test: Cellular antioxidant activity (CAA); assay type: cell-based; details: Homo sapiens; HepG2 cells, DCFH-DA/AAPH; > = no activity noted at the highest concentration tested
Method: For cellular antioxidant activity (CAA) assay, the HepG2 cell line (ATCC, CCL-23TM, USA) was cultivated in Eagle’s Minimum Essential Medium (Sigma-Aldrich, USA) supplemented with 10% of foetal bovine serum, 2 mM L-glutamine and 1× Antibiotic Antimycotic Solution (Sigma-Aldrich, St. Louis, MO, USA) in a CO2 incubator (5% CO2, 37 °C, Thermo Fisher Scientific, Waltham, MA, USA) and passaged 2×/week using trypsin-EDTA solution. For the experiments, 100 µL of the cells (1 × 10^6 cells/mL, Cellometer Auto T4 Bright Field Cell Counter, Nexcelom Bioscience, Lawrence, MA, USA) were split into 96-well plates. After 24 h, the cells were washed 3× with PBS (MultiFlo Multi-Mode Dispenser, BioTek, USA) and Dulbecco’s Modified Eagle’s Medium (Sigma-Aldrich, St. Louis, MO, USA) supplemented with the 2′,7′-dichlorodihydrofluorescein diacetate (DCFH-DA, 0.0125 mg/mL) was added to each well together with the tested samples in the concentration range 0–500 µM. After incubation (1 h, CO2 incubator, 37 °C), the medium was manually replaced for AAPH solution (0.16 mg/mL) and the fluorescence (ex./em. 485/540 nm) was recorded immediately for 2 h with 5 min steps.
(§3) The main disadvantage of DPPH scavenging assay is the use of an unnatural radical. Such methods based on competitive probe reactions or indirect methods based on persistent radicals should only be used for preliminary screening purposes. Thus, to better characterize the potential of the obtained conjugates in terms of their biological activity, a series of simple, rapid, sensitive and reproducible biochemical antioxidant assays including FRAP, CUPRAC and ORAC [38] and a more relevant cellular antioxidant activity (CAA [37]) was measured (Table 2). […] Therefore, in this study, we compared two methods with the same mechanism of action: ORAC assay was performed as a classical biochemical method presenting the ability of tested compounds to quench peroxyl radicals generated from AAPH to protect fluorescein from oxidation. This assay serves better as a physical description of the tested compounds [37]. To reflect biological aspect, CAA was measured using the liver carcinoma HepG2 cell line where the compound must enter the cell to fulfil its role as an antioxidant. The CAA assay partially includes the bioavailability, aspects of uptake and metabolism.

[2] = Oxygen radical absorption capacity (ORAC); assay type: biochemical; details: fluorescein/AAPH, PBS pH 7.4, 37 °C; mean ± standard error
Method: as §1, §3

DPPH radical scavenging = assay type: biochemical; details: 20 µM DPPH in methanol, 30 min, 25 °C, mean ± standard error
Method: The radical scavenging activity of the prepared conjugates, their parent compounds, their equimolar mixtures and retinol was evaluated as their capacity to scavenge 1,1-diphenyl-2-picrylhydrazyl radicals (DPPH, Sigma-Aldrich, Prague, Czech Republic), as described previously with minor modifications. Briefly, 15 µL of the tested substance (final concentration 0–20 mM in DMSO) was mixed with 285 µL of a freshly prepared methanolic DPPH solution (final concentration 20 µM) in a microtiter plate well. After 30 min at 25 °C, the absorbance at 517 nm was measured. The activity was expressed as the concentration of the compound required for reducing the absorbance to 50% (IC50) of its initial value.

[3] = Ferric reducing antioxidant power (FRAP); assay type: biochemical; details: mean ± standard error
Method: as §1, §2

[4] = Stability of sample during ORAC and CAA measurement; assay type: physicochemical
Method: Dose-dependent curves were obtained in both ORAC and CAA assay for single compounds resulting in IC50 determination (Table 2). In contrast, no anti-oxidant activity of the conjugates was detected in liver cells in all the concentration range tested up to 50 or 500 µM. In fact, such a large concentration is not expectable in plasma.

[5] = parent compound alone, read-out: DPPH radical scavenging activity (IC50), parent compound
[6] = covalent retinoyl conjugate, read-out: DPPH radical scavenging activity (IC50), conjugate with retinoic acid

| IC50 (HepG2 cell line) [µM] | IC50 [2] [µM] | IC50 (DPPH radical scavenging; [5]) | IC50 (DPPH radical scavenging; [6]) [µM] | Stability during ORAC and CAA measurement [4] | SMILES | CUPRAC (cupric reducing antioxidant capacity) [1] | FRAP (ferric-reducing antioxidant potential, trolox equivalents) [3] |
| --- | --- | --- | --- | --- | --- | --- | --- |
| 1270 ± 147 | 169 ± 12 | 1480 µM and 745 µM |  |  | CC1=C(/C=C/C(C)=C/C=C/C(C)=C/CO)C(C)(C)CCC1 [compound 1, Retinol] | 0.09 ± 0.01^f TE | 1.76 ± 0.04 TE |
| 6.8 ± 0.5 | 8 ± 0.3 | 659 ± 29 µM |  |  | COc1cc([C@@H]2Oc3cc([C@H]4Oc5cc(O)cc(O)c5C(=O)[C@@H]4O)ccc3O[C@H]2CO)ccc1O [3b, silybin B] | 0.16 ± 0.02 TE | 0.268 ± 0.009 TE |
| > 500 | 91 ± 4 |  | 666 |  | COc1cc(C2Oc3cc([C@H]4Oc5cc(OC(=O)/C=C(C)/C=C/C=C(C)/C=C/C6=C(C)CCCC6(C)C)cc(O)c5C(=O)[C@@H]4O)ccc3OC2CO)ccc1O (stereo partly drawn) [6ab, Silybin-7-O-retinoate] | 0.22 ± 0.01 TE | 0.03 ± 0.02 *^,# TE |
| 10.9 ± 0.5 | 9.6 ± 0.4 | 19.2 ± 0.3 µM |  |  | COc1cc(C2Oc3cc(-c4oc5cc(O)cc(O)c5c(=O)c4O)ccc3OC2CO)ccc1O (stereo not drawn) [compound 4, 2,3-dehydrosilybin] | 0.25 ± 0.00 TE | 4.06 ± 0.05 TE |
| > 500 | 130 ± 7 |  | 734 |  | COc1cc(C2Oc3cc(-c4oc5cc(O)cc(O)c5c(=O)c4OC(=O)/C=C(C)/C=C/C=C(C)/C=C/C4=C(C)CCCC4(C)C)ccc3OC2CO)ccc1O (stereo not drawn) [compound 7, 2,3-Dehydrosilybin AB-3-O-retinoate] | 0.07 ± 0.02^f TE | 0.034 ± 0.005 *^,# TE |
| 460 ± 211 | 13 ± 2 | 745 µM and 1480 µM |  |  | CC1=C(/C=C/C(C)=C/C=C/C(C)=C/C(=O)O)C(C)(C)CCC1 [compound 2, Retinoic acid] | 0.10 ± 0.02^f TE | 0.62 ± 0.02 TE |
| > 100 | 4.3 ± 1.1 | 783 ± 9 µM |  |  | COc1cc([C@H]2Oc3ccc([C@H]4Oc5cc(O)cc(O)c5C(=O)[C@@H]4O)cc3O[C@@H]2CO)ccc1O [5a, isosilybin A] | 0.16 ± 0.02 TE | 0.280 ± 0.006 TE |
| 10 ± 0.7 | 8.5 ± 0.4 | 818 ± 22 µM |  |  | COc1cc([C@H]2Oc3cc([C@H]4Oc5cc(O)cc(O)c5C(=O)[C@@H]4O)ccc3O[C@@H]2CO)ccc1O [3a, silybin A] | 0.20 ± 0.00 TE | 0.278 ± 0.005 TE |
| > 500 | 174 ± 7 |  | 2360 |  | COc1cc([C@H]2Oc3ccc([C@H]4Oc5cc(OC(=O)/C=C(C)/C=C/C=C(C)/C=C/C6=C(C)CCCC6(C)C)cc(O)c5C(=O)[C@@H]4O)cc3O[C@@H]2CO)ccc1O [8a, Isosilybin A-7-O-retinoate] | 0.11 ± 0.01^f TE | 0.022 ± 0.003 *^,# TE |
| 11.8 ± 0.3 | 7.8 ± 0.7 | 472 ± 16 µM |  |  | COc1cc(C2Oc3cc([C@H]4Oc5cc(O)cc(O)c5C(=O)[C@@H]4O)ccc3OC2CO)ccc1O (stereo partly drawn) [3ab, Silybin] | 0.17 ± 0.00 TE | 0.335 ± 0.006 TE |
| > 500 | 230 ± 8 |  | 540 |  | COc1cc([C@@H]2Oc3cc([C@H]4Oc5cc(OC(=O)/C=C(C)/C=C/C=C(C)/C=C/C6=C(C)CCCC6(C)C)cc(O)c5C(=O)[C@@H]4O)ccc3O[C@H]2CO)ccc1O [6b, Silybin B-7-O-retinoate] | 0.04 ± 0.01^f TE | 0.010 ± 0.001 *^,# TE |
| > 50 |  |  | 379 | unstable and decomposed | COc1cc([C@H]2Oc3cc([C@H]4Oc5cc(OC(=O)/C=C(C)/C=C/C=C(C)/C=C/C6=C(C)CCCC6(C)C)cc(O)c5C(=O)[C@@H]4O)ccc3O[C@@H]2CO)ccc1O [6a, Silybin A-7-O-retinoate] | 0.21 ± 0.02 TE | 0.038 ± 0.002 *^,# TE |
